Measured values published in patent publication US20040235785A1, “Potentiator of antitumoral agents in the treatment of cancer” (priority 2001, published 2004).

Key:
[1] = studies performed by the National Cancer Institute; cited from earlier work
[2] = system: M4BEU human melanoma cell line; assay: Maximal tolerated dose in vitro (resazurin reduction test), M4BEU; assay type: cell-based; conditions: 48 h
Source text: (§1) The human cell lines breast cancer adenocarcinoma MCF-7, prostatic adenocarcinoma PC-3, lung carcinoma A-549 and colon adenocarcinoma DLD-1 together with the mouse cell line L-929 (fibrobast) were obtained from the European Collection of Cell Cultures (ECACC, Salisbury, United Kingdom). Normal human fibroblasts were purchased from Biopredic International (Rennes, France). The M4BEU human melanoma cell line was generously supplied by Dr. J F Doré (Institut National de la Santé et de la Recherche Médicale-INSERM, Unit 218, Lyon, France). All the cell lines were grown in minimum essential medium with Earle's salts (Gibco-BRL, Paisley, Scotland) supplemented with 10% fetal calf serum (Sigma-Aldrich), 1×solution of vitamins (Gibco-BRL), 1 mM sodium pyruvate (Gibco-BRL), 1×non-essential amino acids (Gibco-BRL) and 2 mg of gentamicin base (Gibco-BRL). Cells were cultured in a humidified atmosphere at 37° C. in 5% CO2.

[3] = system: A-549 human lung carcinoma cell line; assay: Maximal tolerated dose in vitro (resazurin reduction test), A-549; assay type: cell-based; conditions: A-549, 48 h
Source text: as §1

[4] = system: PC-3 human prostatic adenocarcinoma cell line; assay: Maximal tolerated dose in vitro (resazurin reduction test), PC-3; assay type: cell-based; conditions: PC-3, 48 h
Source text: as §1

[5] = system: MCF-7 human breast adenocarcinoma cell line; assay: Maximal tolerated dose in vitro (resazurin reduction test), MCF-7; assay type: cell-based; conditions: MCF-7, 48 h
Source text: as §1

[6] = system: normal and cancerous cell lines; assay: In vitro toxicity / MTD, stated overall for the cell lines tested; assay type: cell-based
Procedure: The screening of terpene potentiators in accordance with the present invention is carried out by the evaluation of several parameters including: i) the cytotoxicity (maximal tolerated dose); and iii) the effect on the intracellular glutathione content; and iv) the synergism in combination with antitumor agents. Briefly, the cytotoxicity or the cell growth inhibition induced by the terpenes is evaluated on various cell lines in order to determine the maximal tolerated dose (MTD) or non-toxic dose. […] The cell growth is measured by the fluorescence induced by the metabolic transformation of resazurin™ in resorufin™, which is proportional to living cells (see materials and methods). […] Moreover, β-caryophyllene is not toxic in mice at >500 mg/kg. It is shown herein that β-caryophyllene is having a synergistic action on the treatment of cancer when used in combination with antitumoral agents such as paclitaxel. To assess the synergistic effect of terpenes such as β-caryophyllene, the cancer cells are treated with growing concentrations of antitumoral agents (paclitaxel) with or without terpene (β-caryophyllene).
The in vitro toxicity of β-caryophyllene has been evaluated from 5 cell lines: human adenocarcinoma, MCF-7; human prostatic adenocarcinoma, PC-3; human lung carcinoma, A-549 and human colon adenocarcinoma, DLD-1 and from human and mouse fibroblasts.
Cell survival has been evaluated after receiving an increasing dose of β-caryophyllene between 6.25 and 800 µM. It is shown in table I that β-caryophyllene is not toxic in vitro in a dose less than […].

[7] = system: DLD-1 human colon adenocarcinoma cell line; assay: Maximal tolerated dose in vitro (resazurin reduction test), DLD-1; assay type: cell-based; conditions: DLD-1, 48 h
Source text: as §1

MCF-7 cells = assay: Synergistic effect in combination with paclitaxel, MCF-7; assay type: cell-based, human; conditions: MCF-7, β-caryophyllene combined with paclitaxel
Procedure: The resazurin reduction test (RRT) was carried out according to the protocol as described by O'Brien et al. Briefly, plates were rinsed by 200 μl PBS (37° C., Gibco) at 37° C. using an automatic microplate washer (Cell Wash™, Labsystems, Helsinki, Finland) and emptied by overturning on absorbent toweling. Then, 150 μl of a 25μg/ml solution of resazurin in MEM without Phenol red was added in each well using an automatic microvolume dispenser (Multidrop 384™ Labsystems). The plates were incubated 1 h at 37° C. in a humidified atmosphere with 5% of CO2 for fluorescence development by living cells. Fluorescence was then measured on the automated 96-well plate reader Fluoroskan Ascent FL™ (Labsystems) using an excitation wavelength of 530 nm and an emission one of 590 nm. The fluorescence is proportional to the number of living cells in the well.
Briefly, the cells were plated at a density of 5×10^3 cells per well in 96-well microplates (Nunclon™, Nunc) in 100 μl of culture medium and were allowed to adhere for 16 h before treatment. […] The proliferation of tumour cells was assessed using resazurin reduction test as described above. The synergistic effect of β-caryophyllene was determined by the comparison between the percentage of cells growth inhibition induced by the paclitaxel used alone and the one induced by the combination of paclitaxel and β-caryophyllene.

normal human fibroblasts = assay: Maximal tolerated dose in vitro (resazurin reduction test), human fibroblast; assay type: cell-based; conditions: 48 h
Source text: as §1

[8] = system: L-929 mouse subcutaneous connective tissue cell line; assay: Maximal tolerated dose in vitro (resazurin reduction test), L-929; assay type: cell-based; conditions: L-929, 48 h
Source text: as §1

C=C1CC/C=C(\C)CC[C@@H]2[C@@H]1CC2(C)C [β-caryophyllene]
mutagenicity [1]: not mutagenic | MTD (maximal tolerated dose or maximal no toxic dose) [2]: >800 µM | MTD (maximal tolerated dose or maximal no toxic dose) [3]: >800 µM | MTD (maximal tolerated dose or maximal no toxic dose) [4]: >800 µM | MTD (maximal tolerated dose or maximal no toxic dose) [5]: >800 µM | cytotoxicity against normal and cancerous cell lines tested in vitro [6]: does not induce cytotoxicity | in vitro toxicity (cell survival) ([6]; dose less than 800, doses tested between 6.25 and 800): not toxic | MTD (higher concentration that does not induce cell growth inhibition) ([6]; various cell lines, stated overall): greater than 800 μM | MTD (maximal tolerated dose or maximal no toxic dose) [7]: >800 µM | increase of cell growth inhibition induced by paclitaxel (MCF-7 cells): about 40% | MTD (maximal tolerated dose or maximal no toxic dose) (normal human fibroblasts): >800 µM | MTD (maximal tolerated dose or maximal no toxic dose) [8]: >800 µM
